Data taken from patent publication US20040146519A1, “Inducing cellular immune responses to carcinoembryonic antigen using peptide and nucleic acid compositions” (priority 2002, published 2004).
Where no end group is shown, it is not given here.

Key:
[1] = molecular target: HLA-A*0202 (Homo sapiens, UniProt P04439, D140Y/D185E/D98H/E176V/E277Q/G131W/G231S/I119L/I121R/I166T/I218V/L180W/L300P/L318F/N151K/N90K/P208A/P217A/Q67R/Q86G/Q94H/R138H/R169H/T345S); experiment: HLA class I binding assay, purified HLA-A*0202; settings: Table XXII, binding affinity
[2] = molecular target: HLA-A*0206 (Homo sapiens, UniProt P04439, D140Y/D185E/D98H/E176V/E277Q/F33Y/G131W/G231S/I119V/I121R/I166T/I218V/L300P/L318F/N151K/N90K/P208A/P217A/Q86G/Q94H/R138H/R169H/T345S); experiment: HLA class I binding assay, purified HLA-A*0206; settings: Table XXII, binding affinity
[3] = molecular target: HLA-A*6802 (Homo sapiens, UniProt P04439, A269V/D140Y/D185E/E176V/E277Q/E87N/F33Y/G231S/I121R/I166T/I218V/L180W/L300P/L318F/N151K/P208A/P217A/Q86R/R138H/R169H/S129P/T345S/V36M); experiment: HLA class I binding assay, purified HLA-A*6802; settings: Table XXII, binding affinity
[4] = molecular target: HLA-A*0203 (Homo sapiens, UniProt P04439, A173T/D140Y/D185E/D98H/E277Q/G131W/G231S/I119V/I121R/I166T/I218V/L180W/L300P/L318F/N151K/N90K/P208A/P217A/Q86G/Q94H/R138H/R169H/T345S); experiment: HLA class I binding assay, purified HLA-A*0203; settings: Table XXII, binding affinity
[5] = molecular target: HLA-A*0201 (Homo sapiens, UniProt P04439, D140Y/D185E/D98H/E176V/E277Q/G131W/G231S/I119V/I121R/I166T/I218V/L300P/L318F/N151K/N90K/P208A/P217A/Q86G/Q94H/R138H/R169H/T345S); experiment: HLA class I binding assay, purified HLA-A*0201; settings: Table XXII, binding affinity
[6] = molecular target: HLA-A*3101 (Homo sapiens, UniProt P04439, A270S/D185E/E176V/E277Q/F33T/G231S/G80R/H175R/I121M/I218V/I322F/K168Q/L300P/L318F/M331R/P217A/Q94H/R138Q/T323A/T345S/T97I/V358M); experiment: HLA class I binding assay, purified HLA-A*3101; settings: Table XXIII, binding affinity
[7] = molecular target: HLA-A*3301 (Homo sapiens, UniProt P04439, A270S/D185E/E176V/E277Q/E87N/F33T/G231S/H175R/I121M/I218V/I322F/K168Q/K210R/L300P/L318F/M331R/P217A/Q86R/Q94H/R138Q/T323A/T345S/T97I/V358M/Y195H); experiment: HLA class I binding assay, purified HLA-A*3301; settings: Table XXIII, binding affinity
[8] = molecular target: HLA-A*6801 (Homo sapiens, UniProt P04439, A269V/D185E/E176V/E277Q/E87N/F33Y/G231S/I121M/I166T/I218V/L180W/L300P/L318F/N151K/P208A/P217A/Q86R/R169H/T345S); experiment: HLA class I binding assay, purified HLA-A*6801; settings: Table XXIII, binding affinity
[9] = molecular target: HLA-A*1101 (Homo sapiens, UniProt P04439, A114D/D185E/E176A/F33Y/L180Q/S129P/T187R); experiment: HLA class I binding assay, purified HLA-A*1101; settings: Table XXIII, binding affinity

Row | Compound | IC50 [1] | IC50 [2] | IC50 [3] | IC50 [4] | IC50 [5] | IC50 [6] | IC50 [7] | IC50 [8] | IC50 [9]
1 | CC[C@H](C)[C@H](NC(=O)[C@H](CC(C)C)NC(=O)[C@@H](N)CCC(N)=O)C(=O)NCC(=O)N[C@@H](Cc1ccc(O)cc1)C(=O)N[C@H](C(=O)N[C@H](C(=O)NCC(=O)N[C@H](C(=O)O)C(C)C)[C@@H](C)CC)C(C)C [CEA.78L2V9] | 5.9 nM |  | 2.3 nM | 2.3 nM |  |  |  |  | 
2 | CC(C)C[C@H](NC(=O)[C@H](CC(C)C)NC(=O)[C@@H](NC(=O)[C@H](CC(C)C)NC(=O)[C@@H](NC(=O)[C@@H](N)CCCNC(=N)N)C(C)C)[C@@H](C)O)C(=O)N[C@@H](CO)C(=O)N[C@H](C(=O)N[C@H](C(=O)N[C@@H](CCCCN)C(=O)O)[C@@H](C)O)C(C)C [CEA.376.V2K10] |  |  |  |  |  | 164 nM | > 10000 nM | 5710 nM | 
3 | TVSPLNTSYK [CEA.241.V2K10] |  |  |  |  |  | > 10000 nM | > 10000 nM | 7.3 nM | 6 nM
4 | CC(C)[C@H](NC(=O)[C@@H](N)[C@@H](C)O)C(=O)N[C@@H](CO)C(=O)N1CCC[C@H]1C(=O)N[C@@H](CO)C(=O)N[C@@H](Cc1ccc(O)cc1)C(=O)N[C@H](C(=O)N[C@@H](Cc1ccc(O)cc1)C(=O)N[C@@H](Cc1ccc(O)cc1)C(=O)N[C@@H](CCCCN)C(=O)O)[C@@H](C)O [CEA.419.V2K10] |  |  |  |  |  | 3670 nM | > 10000 nM | 6.7 nM | 43 nM
5 | CC[C@H](C)[C@H](N)C(=O)N[C@H](C(=O)N1CCC[C@H]1C(=O)N[C@@H](CO)C(=O)N[C@@H](Cc1ccc(O)cc1)C(=O)N[C@H](C(=O)N[C@@H](Cc1ccc(O)cc1)C(=O)N[C@@H](Cc1ccc(O)cc1)C(=O)N[C@@H](CCCCN)C(=O)O)[C@@H](C)O)C(C)C [CEA.420.V2K9] |  |  |  |  |  | 720 nM | 4330 nM | 22 nM | 

Other lines, results leading:

Row | IC50 [1] | IC50 [2] | IC50 [3] | IC50 [4] | IC50 [5] | IC50 [6] | IC50 [7] | IC50 [8] | IC50 [9] | Compound
6 | 24 nM | 31 nM | 3480 nM |  |  |  |  |  |  | CC[C@H](C)[C@H](NC(=O)CNC(=O)[C@H](CS)NC(=O)[C@H](CC(C)C)NC(=O)[C@@H](N)Cc1ccc(O)cc1)C(=O)N[C@@H](CCC(N)=O)C(=O)N[C@@H](CC(N)=O)C(=O)N[C@@H](CO)C(=O)N[C@H](C(=O)O)C(C)C [CEA.569L2]
7 | 205 nM | 142 nM | 500 nM | 31 nM | 64 nM |  |  |  |  | CC[C@H](C)[C@H](NC(=O)CN)C(=O)N[C@@H](CCSC)C(=O)N[C@H](C(=O)NCC(=O)N[C@H](C(=O)N[C@@H](CC(C)C)C(=O)N[C@H](C(=O)NCC(=O)N[C@H](C(=O)O)C(C)C)C(C)C)C(C)C)[C@@H](C)CC [CEA.690]
8 |  |  |  |  |  | > 10000 nM | > 10000 nM | 5.3 nM | 207 nM | CC(C)C[C@H](NC(=O)[C@H](CC(N)=O)NC(=O)[C@H](CO)NC(=O)[C@@H](NC(=O)[C@@H](N)Cc1ccccc1)C(C)C)C(=O)N[C@@H](C)C(=O)N[C@H](C(=O)NCC(=O)N[C@@H](CCCCN)C(=O)O)[C@@H](C)O [CEA.656.K9]
9 | 63 nM | 100 nM | 102 nM | 31 nM | 10 nM |  |  |  |  | CC[C@H](C)[C@H](NC(=O)CNC(=O)[C@@H](NC(=O)[C@H](CC(C)C)NC(=O)[C@H](C)N)C(C)C)C(=O)N[C@@H](CCSC)C(=O)N[C@H](C(=O)NCC(=O)N[C@H](C(=O)O)C(C)C)[C@@H](C)CC [CEA.687L2]
10 |  |  |  |  |  | 234 nM | > 10000 nM | 2350 nM | 32 nM | CC(C)C[C@H](NC(=O)[C@@H](NC(=O)[C@@H](N)CCCNC(=N)N)C(C)C)C(=O)N[C@H](C(=O)N[C@@H](CC(C)C)C(=O)N[C@@H](Cc1ccccc1)C(=O)N[C@@H](CC(N)=O)C(=O)N[C@H](C(=O)N[C@H](C(=O)N[C@@H](CCCCN)C(=O)O)[C@@H](C)O)C(C)C)[C@@H](C)O [CEA.554.V42K10]
11 | 8 nM |  | 160 nM | 3.2 nM | 22 nM |  |  |  |  | CC[C@H](C)[C@H](N)C(=O)N[C@@H](CC(C)C)C(=O)N[C@H](C(=O)NCC(=O)N[C@H](C(=O)N[C@@H](CC(C)C)C(=O)N[C@H](C(=O)NCC(=O)N[C@H](C(=O)O)C(C)C)C(C)C)C(C)C)[C@@H](C)CC [CEA.691L2]
